# Patent US20250186623A1, “EXPRESSION SYSTEM FOR THE TREATMENT OF CANCER” (FUNDACION PARA LA INVESTIGACION MEDICA APLICADA, priority 2022, published 2025)
# Where two headings read alike, the source gives them in different places.
# How the values were obtained:
# hSTINGmut [1] = target: T1, hSTINGmut (Homo sapiens, UniProt Q86WV6, G230I/H232R/Q266I/S162A); assay: DMXAA mediated expression of STING-derived cytokines (qPCR); type: cell-based; conditions: hSTINGmut-transduced MC38 and Hep2G cells; 50 μg/mL DMXAA, 3 h or 6 h
# T1 construct: expressed in transfected cells
# T1 sequence (Q86WV6 whole entry S162A/G230I/H232R/Q266I): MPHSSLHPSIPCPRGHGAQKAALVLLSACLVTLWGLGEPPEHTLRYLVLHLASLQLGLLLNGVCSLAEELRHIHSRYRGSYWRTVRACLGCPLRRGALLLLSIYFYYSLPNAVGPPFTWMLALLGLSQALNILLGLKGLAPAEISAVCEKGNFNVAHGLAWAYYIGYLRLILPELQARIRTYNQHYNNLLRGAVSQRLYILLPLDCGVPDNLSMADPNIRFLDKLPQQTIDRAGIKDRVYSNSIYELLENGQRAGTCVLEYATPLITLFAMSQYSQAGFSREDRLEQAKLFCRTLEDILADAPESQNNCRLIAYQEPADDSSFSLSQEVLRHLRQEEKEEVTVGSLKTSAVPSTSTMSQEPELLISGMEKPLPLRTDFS
# Procedure: (§1) As a readout, the expression of STING-derived cytokines was measured by qPCR.
# (§2) To this end, MC38 and Hep2G cells have been transduced with lentiviruses encoding luciferase, hSTINGwt, hSTINGmut to obtain stable cell lines as described above or were not transduced with any lentivirus (no vector). Respective cells were seeded in 24-well plates at a density of 750 cells/mm^2 in growth medium. […] Cells were harvested and prepared for qPCR measurements as described above. The expression of the cytokines IFN-β, TNF-α, IL-6, CXCL9 and CXCL10 were measured for either experimental group and expression levels relative to controls (no vector) were quantified.
# hSTINGwt = target: T2, hSTINGwt (Homo sapiens, UniProt Q86WV6, H232R); assay: as above; type: cell-based; conditions: other groups (hSTINGwt, luciferase, no vector); 50 μg/mL DMXAA
# T2 construct: expressed in transfected cells
# T2 sequence (Q86WV6 whole entry H232R): as the sequence (Q86WV6 whole entry S162A/G230I/H232R/Q266I) above, with A162S, I230G, I266Q counted along it
# Procedure: as §1, §2
# [2] = system: IFN-β protein levels in the serum
# Procedure: C57 wild type mice, aged 6 to 10 weeks, were injected intravenously with an AAV8 vector encoding either hSTINGmut (AAV8-hSTINGmut, 1×10^11 viral genomes) or as a control GFP (AAV8-GFP, 1.5×10^11 viral genomes).
# human STING = human STING (Homo sapiens, UniProt Q86WV6); conditions: cited from earlier work
# human STING, sequence (Q86WV6 whole entry H232R): as the sequence (Q86WV6 whole entry S162A/G230I/H232R/Q266I) above, with A162S, I230G, I266Q counted along it
# [3] = target: hSTING[R]-S162A/G230I/Q266I (Homo sapiens, UniProt Q86WV6, G230I/H232R/Q266I/S162A); conditions: cited from earlier work
# hSTING[R]-S162A/G230I/Q266I, sequence (Q86WV6 whole entry S162A/G230I/H232R/Q266I): as the sequence (Q86WV6 whole entry S162A/G230I/H232R/Q266I) above
# MC38 cells [4] = assay: Synergism proof of principle I: IFN-β mRNA by qPCR; type: cell-based, murine; conditions: 8 Gy + DMXAA 50 μg/mL, without exogenic hSTINGmut
# Procedure: To this end, MC38 cells received 8 Gy or 0 Gy as described above (example 7). Cells were seeded thereafter at 750 cells/mm^2 density and were then either mock-transduced or transduced with AAV8-hSTINGmut (1×10^5 viral genomes/cell). For cell transduction 8.5×10^9 viral genomes of AAV8-hSTINGmut from known concentration stock solutions, were resuspended in 50 μl RPMI 2% FBS. The resuspended viral particles were then added to the wells where the cells were seeded.
# MC38 tumors = assay: Synergism of DMXAA and radiotherapy in a humanized mouse model in vivo, cytokine ELISA; parameters: species or system STING deficient C57 mice (STING KO); conditions: 6 h after DMXAA 20 mg/kg, irradiated tumors
# HEK293 cells = assay: Synergism proof of principle III: IFN-β and IL-12 mRNA by qPCR; type: cell-based, human; conditions: for IFN-β expression levels: hSTINGmut expressing cells
# Description: To this end, HEK293 cells received 8 Gy or 0 Gy as described above for MC38 cells and then were co-transduced with AAV8-hSTINGmut (1×10^5 viral genomes), AAV8-ISREx4-IL12miR122T (1×10^5 viral genomes) and/or AAV-GFP (1×10^5 viral genomes) as indicated in the figure.
# [5] = system: native non-transduced MC38 cells; assay: Synergism proof of principle IV: IFN-β protein by ELISA; type: cell-based, murine
# Procedure: In addition to the previous experiments, the objective of the fourth experiment was to further investigate the observed synergism between the canonical and non-canonical STING.
# To this end, native non-transduced MC38 cells received 0 Gy, 2 Gy or 8 Gy as described above. […] The IFN-p protein levels were determined by ELISA as described above.
# hSTINGmut [6] = target: T1, hSTINGmut; assay: Time-course expression of STING-derived cytokines upon DMXAA treatment (qPCR); type: cell-based; conditions: MC38 and Hep2G cells encoding hSTINGmut; 50 μg/mL DMXAA; any given timepoint
# Procedure: The objective of this experiment was to examine the time-course of STING-derived cytokine expression upon DMXAA treatment. As a readout, the expression of STING-derived cytokines was measured by qPCR.
# To this end, stable cell lines of MC38 and Hep2G cells encoding hSTINGmut have been obtained as described above. […] Cells were harvested and prepared for qPCR measurements as described above.
# [7] = human, in vivo; cited from earlier work
# MC38 cells [8] = assay: Synergism proof of principle II: IL-12 mRNA by qPCR; type: cell-based, murine; conditions: cells transduced with AAV8-hSTINGmut plus AAV8-ISREx4-IL12miR122T
# Procedure: To this end, MC38 cells received 8 Gy or 0 Gy as described above and then were co-transduced with AAV8-hSTINGmut (1×10^5 viral genomes/cell) and AAV8-ISREx4-IL12miR122T (0.5×10^5 viral genomes/cell) as described above. For cell transduction, 8.5×10^9 viral genomes of AAV8-hSTINGmut and 4.25×10^9 viral genomes of AAV8-scIL12-miR122T, from known concentration stock solutions, were resuspended, each one, in 50 μl RPMI 2% FBS. The resuspended viral particles were then added to the wells where the cells were seeded. […] The IL-12 mRNA was determined by qPCR as described above (example 3) and expression levels were quantified in reference to non-transduced, non-irradiated cells treated with vehicle.
# murine STING = target: T3, murine STING (Mus musculus, UniProt Q3TBT3); conditions: cited from earlier work
# T3 sequence (Q3TBT3 1-378): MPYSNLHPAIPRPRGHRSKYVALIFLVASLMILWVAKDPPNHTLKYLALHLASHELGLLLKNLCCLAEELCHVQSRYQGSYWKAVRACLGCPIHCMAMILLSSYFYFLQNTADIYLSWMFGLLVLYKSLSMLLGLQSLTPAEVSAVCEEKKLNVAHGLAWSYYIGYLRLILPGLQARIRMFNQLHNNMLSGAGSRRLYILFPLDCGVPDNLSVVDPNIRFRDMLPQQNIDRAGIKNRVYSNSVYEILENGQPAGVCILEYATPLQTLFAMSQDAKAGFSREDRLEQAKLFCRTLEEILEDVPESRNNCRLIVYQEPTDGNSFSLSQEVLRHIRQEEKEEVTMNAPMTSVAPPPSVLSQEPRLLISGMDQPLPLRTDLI
structure (smiles),measurement,setting,value
"Cc1ccc2c(=O)c3cccc(CC(=O)O)c3oc2c1C [DMXAA, 5,6-Dimethylxanthenone-4-acetic acid]","expression of the cytokines IFN-β, TNF-α, IL-6, CXCL9 and CXCL10",hSTINGmut [1],elevated
same,"expression of the cytokines IFN-β, TNF-α, IL-6, CXCL9 and CXCL10",hSTINGwt,no significant alteration
same,serum IFN-β levels in AAV8-GFP transduced control animals,"[2]; 20 mg DMXAA/kg bodyweight i.p., after a first injection",elevation
same,toxicity and mortality,"[2]; 20 mg DMXAA/kg, AAV8-hSTINGmut and AAV8-GFP mice, systemic STING stimulation",high toxicity and mortality
same,serum IFN-β levels in AAV8-hSTINGmut transduced mice,[2]; 5 or 10 mg DMXAA/kg bodyweight i.p.,very low levels
same,toxicity and mortality,"[2]; 5 or 10 mg DMXAA/kg, AAV8-hSTINGmut transduced mice",neither cause significant toxicity nor mortality
same,activation of human STING,human STING,unable to activate
same,activation of hSTING[R]-S162A/G230I/Q266I,[3],highly activated
same,IFN-β mRNA expression,MC38 cells [4],increase in IFN-β expression
same,intratumor levels of IL-12,MC38 tumors,increased significantly
same,IL-12 expression levels,"HEK293 cells; ISREx4-IL12miR122T expressing cells, radiation plus further DMXAA treatment",significant increase
same,IFN-β expression levels,HEK293 cells; DMXAA 50 μg/mL,upregulated
same,IFN-β expression levels,HEK293 cells; DMXAA plus additional irradiation 8 Gy,significantly increased
same,IFN-β production,"[5]; 8 Gy plus DMXAA (different doses), 24 h or 48 h",exceeding the sum of those obtained with radiation alone and DMXAA alone
same,IFN-β production after a single dose of radiation,"[5]; 8 Gy, DMXAA 50 μg/mL 24 h later, collected after another 24 h",enhanced
same,expression of STING-derived cytokines over time,hSTINGmut [6],increase in expression levels
same,efficacy in clinical trials,[7],lack of efficacy
same,tolerability in clinical trials,[7],well tolerated and only displayed minor side effects
same,IL-12 mRNA levels,MC38 cells [8]; 8 Gy,strong elevation
same,IL-12 mRNA levels,MC38 cells [8]; non-irradiated,slight elevation
"O=C(O)Cc1cccc2c(=O)cc(-c3ccccc3)oc12 [FAA, flavone-8-acetic acid]",activation of murine STING,murine STING,may also be activated
